Columns and labels:
[1] = biological target: Sodium-dependent serotonin transporter (Homo sapiens, UniProt P31645); test: Inhibition of [3H]5HT reuptake at human serotonin transporter expressed in HEK293 cells by scintillation counting; format: cell-based
[2] = biological target: Sodium-dependent dopamine transporter (Homo sapiens, UniProt Q01959); test: Inhibition of [3H]DA reuptake at human dopamine transporter expressed in HEK293 cells by scintillation counting; format: cell-based
[3] = biological target: Sodium-dependent noradrenaline transporter (Homo sapiens, UniProt P23975)
Description: Inhibition of [3H]NA reuptake in human noradrenaline transporter expressed in HEK293 cells by scintillation counting

[4] = Metabolic stability assessed as half life in human liver microsomes; format: ADME, Microsome
[5] = Distribution coefficient, log D at pH 7.4; format: physicochemical; conditions: octanol/water
Cytochrome P450 2D6 = Cytochrome P450 2D6 (Homo sapiens, UniProt P10635); test: Inhibition of CYP2D6; format: ADME
in vitro = conditions: human, hepatocytes
Description: Intrinsic clearance in human hepatocytes assessed per million cells

[6] = biological target: Voltage-gated inwardly rectifying potassium channel KCNH2 (Homo sapiens, UniProt Q12809); test: Inhibition of human ERG potassium channel
[7] = Metabolic stability assessed as half life in dog liver microsomes; format: ADME, Canis lupus familiaris, Microsome
[8] = Dissociation constant, pKa of the compound; format: physicochemical
[9] = Half life in dog at 0.01 mg/kg, iv; format: ADME, organism-based, Canis lupus familiaris; parameters: dose 0.01 mg/kg, route intravenous; conditions: in vivo
Cytochrome P450 3A4 = Cytochrome P450 3A4 (Homo sapiens, UniProt P08684); test: Inhibition of CYP3A4; format: ADME
[10] = Half life in dog at 0.013 mg/kg, po; format: ADME, organism-based, Canis lupus familiaris; parameters: dose 0.013 mg/kg, route oral; conditions: in vivo
Cytochrome P450 2C19 = Cytochrome P450 2C19 (Homo sapiens, UniProt P33261); test: Inhibition of CYP2C19; format: ADME
[11] = Volume of distribution in dog at 0.01 mg/kg, iv; format: ADME, organism-based, Canis lupus familiaris; parameters: dose 0.01 mg/kg, route intravenous; conditions: in vivo
[12] = Clearance in dog at 0.01 mg/kg, iv; format: ADME, organism-based, Canis lupus familiaris; parameters: dose 0.01 mg/kg, route intravenous; conditions: in vivo
Cytochrome P450 2C9 = Cytochrome P450 2C9 (Homo sapiens, UniProt P11712); test: Inhibition of CYP2C9; format: ADME
Cytochrome P450 1A2 = biological target: T1, Cytochrome P450 1A2 (Homo sapiens, UniProt P05177); test: Inhibition of CYP1A2; format: ADME
T1 sequence (P05177 whole entry): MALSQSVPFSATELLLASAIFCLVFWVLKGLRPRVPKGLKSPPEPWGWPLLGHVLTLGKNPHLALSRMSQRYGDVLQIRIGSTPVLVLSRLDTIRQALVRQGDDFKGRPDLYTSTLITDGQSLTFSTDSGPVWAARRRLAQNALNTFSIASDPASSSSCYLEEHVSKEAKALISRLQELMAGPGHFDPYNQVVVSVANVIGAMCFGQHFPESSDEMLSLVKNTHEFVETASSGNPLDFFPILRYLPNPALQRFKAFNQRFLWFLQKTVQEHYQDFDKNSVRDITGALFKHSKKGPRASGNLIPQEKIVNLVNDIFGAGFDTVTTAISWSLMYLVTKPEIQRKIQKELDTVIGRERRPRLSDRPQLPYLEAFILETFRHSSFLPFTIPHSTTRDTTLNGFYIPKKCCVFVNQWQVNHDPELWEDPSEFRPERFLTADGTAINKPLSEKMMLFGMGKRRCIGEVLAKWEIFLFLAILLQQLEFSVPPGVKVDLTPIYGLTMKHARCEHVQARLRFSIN

[13] = Bioavailability in dog at 0.013 mg/kg, po; format: ADME, organism-based, Canis lupus familiaris; conditions: in vivo

Voltage-gated inwardly rectifying potassium channel KCNH2, sequence (Q12809 whole entry): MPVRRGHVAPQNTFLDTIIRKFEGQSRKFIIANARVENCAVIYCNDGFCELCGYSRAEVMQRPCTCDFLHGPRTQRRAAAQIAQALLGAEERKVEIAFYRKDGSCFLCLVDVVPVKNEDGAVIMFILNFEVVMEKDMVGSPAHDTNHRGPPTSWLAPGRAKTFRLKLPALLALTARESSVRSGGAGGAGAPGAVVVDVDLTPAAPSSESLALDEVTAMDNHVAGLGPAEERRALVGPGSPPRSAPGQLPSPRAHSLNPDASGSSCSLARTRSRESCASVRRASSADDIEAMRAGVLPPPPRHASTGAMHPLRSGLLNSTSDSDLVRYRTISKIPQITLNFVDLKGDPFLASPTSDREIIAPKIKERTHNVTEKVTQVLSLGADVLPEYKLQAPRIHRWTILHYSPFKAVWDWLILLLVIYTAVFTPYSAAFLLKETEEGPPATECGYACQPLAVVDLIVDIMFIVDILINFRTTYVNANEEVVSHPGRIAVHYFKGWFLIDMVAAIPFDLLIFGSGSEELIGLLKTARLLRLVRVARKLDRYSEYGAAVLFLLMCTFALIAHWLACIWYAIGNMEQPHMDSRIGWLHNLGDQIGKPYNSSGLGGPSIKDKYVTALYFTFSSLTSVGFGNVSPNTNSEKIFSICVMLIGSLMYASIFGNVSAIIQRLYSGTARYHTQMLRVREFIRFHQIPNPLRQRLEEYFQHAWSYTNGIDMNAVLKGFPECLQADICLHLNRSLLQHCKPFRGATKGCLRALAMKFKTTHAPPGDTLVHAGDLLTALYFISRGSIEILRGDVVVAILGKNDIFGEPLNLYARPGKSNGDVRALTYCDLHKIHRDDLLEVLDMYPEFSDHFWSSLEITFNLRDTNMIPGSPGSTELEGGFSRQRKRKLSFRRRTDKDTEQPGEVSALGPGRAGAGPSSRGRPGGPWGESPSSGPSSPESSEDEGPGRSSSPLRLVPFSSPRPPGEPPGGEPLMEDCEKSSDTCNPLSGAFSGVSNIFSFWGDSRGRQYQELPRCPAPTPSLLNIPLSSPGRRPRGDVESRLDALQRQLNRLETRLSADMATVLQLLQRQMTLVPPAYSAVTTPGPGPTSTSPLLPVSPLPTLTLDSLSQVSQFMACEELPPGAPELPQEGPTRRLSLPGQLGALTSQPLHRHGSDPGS
Sodium-dependent noradrenaline transporter, sequence (P23975 whole entry): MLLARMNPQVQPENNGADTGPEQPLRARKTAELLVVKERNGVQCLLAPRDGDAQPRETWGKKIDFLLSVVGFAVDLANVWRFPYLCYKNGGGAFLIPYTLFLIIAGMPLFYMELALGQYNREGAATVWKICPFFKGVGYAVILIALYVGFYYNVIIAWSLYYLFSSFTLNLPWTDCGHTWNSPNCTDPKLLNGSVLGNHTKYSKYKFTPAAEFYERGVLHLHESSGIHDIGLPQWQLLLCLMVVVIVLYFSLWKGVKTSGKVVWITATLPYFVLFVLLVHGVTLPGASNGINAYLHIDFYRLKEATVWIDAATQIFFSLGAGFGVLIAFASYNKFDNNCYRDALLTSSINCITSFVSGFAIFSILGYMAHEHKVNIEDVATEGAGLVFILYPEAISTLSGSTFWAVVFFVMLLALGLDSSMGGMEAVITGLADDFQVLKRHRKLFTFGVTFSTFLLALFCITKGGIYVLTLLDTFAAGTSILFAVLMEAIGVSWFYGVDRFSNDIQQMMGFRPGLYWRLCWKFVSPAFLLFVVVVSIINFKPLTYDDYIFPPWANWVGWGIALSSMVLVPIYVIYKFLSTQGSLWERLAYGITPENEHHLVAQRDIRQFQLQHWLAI
Sodium-dependent dopamine transporter, sequence (Q01959 whole entry): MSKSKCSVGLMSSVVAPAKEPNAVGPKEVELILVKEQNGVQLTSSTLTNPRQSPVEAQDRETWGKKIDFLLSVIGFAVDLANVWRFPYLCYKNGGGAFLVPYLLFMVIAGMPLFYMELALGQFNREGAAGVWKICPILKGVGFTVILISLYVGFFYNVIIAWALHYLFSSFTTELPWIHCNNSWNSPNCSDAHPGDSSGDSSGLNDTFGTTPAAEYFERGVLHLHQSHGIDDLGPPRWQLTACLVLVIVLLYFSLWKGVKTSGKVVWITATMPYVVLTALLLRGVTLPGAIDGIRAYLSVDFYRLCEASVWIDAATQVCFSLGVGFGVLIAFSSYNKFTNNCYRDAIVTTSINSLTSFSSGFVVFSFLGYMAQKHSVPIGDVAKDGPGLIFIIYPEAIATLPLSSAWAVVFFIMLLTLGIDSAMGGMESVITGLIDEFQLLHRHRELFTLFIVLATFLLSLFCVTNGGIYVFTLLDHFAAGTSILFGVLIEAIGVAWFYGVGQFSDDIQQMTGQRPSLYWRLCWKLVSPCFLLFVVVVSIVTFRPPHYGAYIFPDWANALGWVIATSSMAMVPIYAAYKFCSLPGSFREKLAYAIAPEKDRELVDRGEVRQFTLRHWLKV
Cytochrome P450 2D6, sequence (P10635 whole entry): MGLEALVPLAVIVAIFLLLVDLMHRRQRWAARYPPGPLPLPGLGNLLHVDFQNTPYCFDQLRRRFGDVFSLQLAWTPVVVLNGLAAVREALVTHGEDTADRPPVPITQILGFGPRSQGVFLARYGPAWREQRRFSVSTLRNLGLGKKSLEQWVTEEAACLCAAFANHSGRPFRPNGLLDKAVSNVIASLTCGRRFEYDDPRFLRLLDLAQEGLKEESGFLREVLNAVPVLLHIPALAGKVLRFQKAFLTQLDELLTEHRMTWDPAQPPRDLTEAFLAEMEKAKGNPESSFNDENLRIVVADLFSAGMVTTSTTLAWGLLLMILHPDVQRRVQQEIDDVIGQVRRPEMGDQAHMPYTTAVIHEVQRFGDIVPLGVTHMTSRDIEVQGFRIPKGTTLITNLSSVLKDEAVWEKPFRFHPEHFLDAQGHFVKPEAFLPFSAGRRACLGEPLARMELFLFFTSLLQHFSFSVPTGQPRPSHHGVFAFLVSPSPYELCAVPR
Sodium-dependent serotonin transporter, sequence (P31645 whole entry): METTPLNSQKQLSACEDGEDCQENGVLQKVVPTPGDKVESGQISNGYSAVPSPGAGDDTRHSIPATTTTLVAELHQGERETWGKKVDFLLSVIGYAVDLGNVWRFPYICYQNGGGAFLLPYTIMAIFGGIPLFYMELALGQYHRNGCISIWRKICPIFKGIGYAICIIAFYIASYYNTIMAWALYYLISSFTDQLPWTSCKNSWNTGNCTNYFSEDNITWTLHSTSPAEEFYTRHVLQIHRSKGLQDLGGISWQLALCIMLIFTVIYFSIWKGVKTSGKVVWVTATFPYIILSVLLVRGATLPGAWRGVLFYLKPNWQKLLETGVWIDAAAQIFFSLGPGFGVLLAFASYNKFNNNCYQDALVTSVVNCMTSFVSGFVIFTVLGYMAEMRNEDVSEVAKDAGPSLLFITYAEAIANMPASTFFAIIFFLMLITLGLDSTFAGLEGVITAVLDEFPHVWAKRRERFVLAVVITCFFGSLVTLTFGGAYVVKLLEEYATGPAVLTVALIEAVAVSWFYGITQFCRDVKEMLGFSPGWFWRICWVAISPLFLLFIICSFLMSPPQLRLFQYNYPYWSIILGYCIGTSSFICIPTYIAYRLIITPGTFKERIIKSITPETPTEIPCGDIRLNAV
Cytochrome P450 2C19, sequence (P33261 whole entry): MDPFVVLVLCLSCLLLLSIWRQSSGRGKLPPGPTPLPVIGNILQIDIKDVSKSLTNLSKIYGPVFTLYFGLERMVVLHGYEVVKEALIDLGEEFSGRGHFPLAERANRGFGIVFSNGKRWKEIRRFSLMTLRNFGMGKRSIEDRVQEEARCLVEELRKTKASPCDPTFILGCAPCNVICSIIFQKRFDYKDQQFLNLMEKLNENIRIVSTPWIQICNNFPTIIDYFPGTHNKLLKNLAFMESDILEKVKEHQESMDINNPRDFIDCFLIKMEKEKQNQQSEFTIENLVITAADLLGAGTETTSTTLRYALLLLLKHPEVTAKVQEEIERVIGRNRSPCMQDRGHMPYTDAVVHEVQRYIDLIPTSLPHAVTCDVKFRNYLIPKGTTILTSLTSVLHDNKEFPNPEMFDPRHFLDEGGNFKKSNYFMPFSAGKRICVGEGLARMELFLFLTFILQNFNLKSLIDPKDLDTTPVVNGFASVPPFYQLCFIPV
Cytochrome P450 2C9, sequence (P11712 whole entry): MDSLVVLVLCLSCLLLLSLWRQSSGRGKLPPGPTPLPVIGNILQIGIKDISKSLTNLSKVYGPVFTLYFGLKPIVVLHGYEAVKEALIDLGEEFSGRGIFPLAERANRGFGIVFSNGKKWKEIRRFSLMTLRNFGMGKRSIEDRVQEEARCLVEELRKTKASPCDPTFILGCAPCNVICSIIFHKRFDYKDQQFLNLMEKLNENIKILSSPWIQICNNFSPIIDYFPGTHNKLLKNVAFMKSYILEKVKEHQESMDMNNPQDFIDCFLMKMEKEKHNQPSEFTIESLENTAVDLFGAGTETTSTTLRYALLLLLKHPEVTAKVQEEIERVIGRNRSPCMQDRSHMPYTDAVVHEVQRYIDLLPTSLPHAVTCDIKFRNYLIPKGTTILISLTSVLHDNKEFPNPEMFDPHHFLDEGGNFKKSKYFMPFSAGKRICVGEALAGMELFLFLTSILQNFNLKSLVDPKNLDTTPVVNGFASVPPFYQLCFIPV
Cytochrome P450 3A4, sequence (P08684 whole entry): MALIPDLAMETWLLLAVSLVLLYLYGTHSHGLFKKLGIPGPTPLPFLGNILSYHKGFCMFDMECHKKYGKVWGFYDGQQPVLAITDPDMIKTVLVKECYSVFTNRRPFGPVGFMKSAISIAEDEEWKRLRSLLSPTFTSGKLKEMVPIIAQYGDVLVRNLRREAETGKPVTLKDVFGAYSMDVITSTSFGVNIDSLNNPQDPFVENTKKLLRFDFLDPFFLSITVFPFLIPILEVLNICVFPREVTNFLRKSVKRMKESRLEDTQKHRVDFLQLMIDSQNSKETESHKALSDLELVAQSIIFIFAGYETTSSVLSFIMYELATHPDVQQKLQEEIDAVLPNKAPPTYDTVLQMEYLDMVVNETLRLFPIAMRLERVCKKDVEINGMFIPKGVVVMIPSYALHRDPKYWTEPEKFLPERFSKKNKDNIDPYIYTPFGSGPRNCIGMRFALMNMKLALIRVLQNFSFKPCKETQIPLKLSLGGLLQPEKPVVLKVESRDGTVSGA

| Structure (SMILES) | IC50 [1] | IC50 [3] | other results |
| --- | --- | --- | --- |
| CC(C)C(=O)N(Cc1ccccc1Cl)[C@H]1CCNC1 | 91 nM | 114 nM | – |
| CC(C)C(=O)N(Cc1ccccc1-c1ccccc1)[C@H]1CCNC1 | > 400 nM | 14 nM | – |
| CC(C)C(=O)N(Cc1ccc(F)cc1F)[C@H]1CCNC1 | > 400 nM | > 400 nM | – |
| CC(C)(C)C(=O)N(Cc1ccc(Cl)cc1Cl)[C@H]1CCNC1 | 41 nM | 92 nM | – |
| CC(C)C(=O)N(Cc1ccc(F)cc1Cl)[C@H]1CCNC1 | 161 nM | 98 nM | – |
| CC(C)C(=O)N(Cc1cc(Cl)cc(Cl)c1Cl)[C@H]1CCNC1 | 44 nM | 29 nM | IC50 [2]: 21600 nM |
| O=C(C1CCOCC1)N(Cc1cccc(Cl)c1Cl)[C@H]1CCNC1 | 123 nM | 300 nM | – |
| O=C(C1CCC1)N(Cc1ccc(Cl)cc1Cl)[C@H]1CCNC1 | 41 nM | 64 nM | – |
| O=C(C1CC1)N(Cc1ccc(Cl)cc1Cl)[C@H]1CCNC1 | 38 nM | 25 nM | – |
| O=C(c1ccccc1)N(Cc1ccc(Cl)cc1Cl)[C@H]1CCNC1 | 195 nM | 94 nM | – |
| CCCCC(=O)N(Cc1ccc(Cl)cc1Cl)[C@H]1CCNC1 | 33 nM | 70 nM | – |
| CC(C)CC(=O)N(Cc1ccc(Cl)cc1Cl)[C@H]1CCNC1 | 93 nM | 31 nM | – |
| CCCC(=O)N(Cc1ccc(Cl)cc1Cl)[C@H]1CCNC1 | 72 nM | 31 nM | – |
| CC(C)C(=O)N(Cc1cccc(Cl)c1Cl)[C@H]1CCNC1 | – | – | half-life [7]: 0.583 h; half-life [4]: > 2 h; pKa [8]: 9.4; half-life [9]: 5.7 h; IC50 (Cytochrome P450 3A4): 17900 nM; half-life [10]: 5.7 h; Activity (Cytochrome P450 2C19): Not Active; Vd [11]: 0.5 L/kg; clearance [12]: 1.1 mL/min/kg; Activity (Cytochrome P450 2C9): Not Active; logD [5]: 0.8; IC50 (Cytochrome P450 2D6): 27100 nM; Activity (Cytochrome P450 1A2): Not Active; IC50 [2]: 1270 nM; bioavailability [13]: 91%; hepatocyte CLint (in vitro): 2.7 µL/min/1e6 cells; IC50 [6]: 24700 nM |

Second part, led by results:

| IC50 [1] | IC50 [3] | Structure (SMILES) | other results |
| --- | --- | --- | --- |
| 5 nM | – | CC(C)C(=O)N(Cc1cccc(Cl)c1Cl)[C@@H]1CCNC1 | IC50 [2]: 1120 nM |
| 24 nM | > 400 nM | CC(C)C(=O)N(Cc1ccc(C(F)(F)F)cc1F)[C@H]1CCNC1 | – |
| 27 nM | 39 nM | CC(C)(C)CC(=O)N(Cc1ccc(Cl)cc1Cl)[C@H]1CCNC1 | IC50 [2]: 10200 nM |
| 17 nM | 62 nM | CC(C)CC(=O)N(Cc1cccc(Cl)c1Cl)[C@H]1CCNC1 | – |
| 5 nM | 16 nM | CC(C)C(=O)N(Cc1ccc(Cl)c(Cl)c1Cl)[C@H]1CCNC1 | half-life [4]: > 2 h; logD [5]: 1.3; IC50 (Cytochrome P450 2D6): 17600 nM; IC50 [2]: 5870 nM; hepatocyte CLint (in vitro): 8.8 µL/min/1e6 cells; IC50 [6]: > 6870 nM |
| 26 nM | > 322 nM | CC(C)(C)C(=O)N(Cc1cccc(Cl)c1Cl)[C@H]1CCNC1 | – |
| 13 nM | 28 nM | CC(C)C(=O)N(Cc1ccc(Cl)cc1Cl)[C@H]1CCNC1 | half-life [4]: > 2 h; logD [5]: 0.8; IC50 (Cytochrome P450 2D6): 21800 nM; IC50 [2]: > 40000 nM; hepatocyte CLint (in vitro): 4.8 µL/min/1e6 cells; IC50 [6]: 40200 nM |
| 25 nM | 60 nM | CCC(=O)N(Cc1ccc(Cl)cc1Cl)[C@H]1CCNC1 | – |
